Measurements taken from publication PMC2783333 (Nature chemical biology, 2009).
Where two headings read alike, the source gives them in different places.

Assays:
MARTXVc CPD [1] = conditions: cited from earlier work
MARTXVc CPD [2] = assay type: biochemical, Vibrio cholerae; conditions: read-out: AC50 (InsP6 for 50% cleavage)
[3] = target: V. vulnificus CMCP6 VV20479 MARTX CPD (Vibrio vulnificus, UniProt A0A2S3R7M0); assay type: biochemical; conditions: 10 µM InsP6
[4] = test system: P. luminescens TTO1 MARTX CPDs (Plu3217, Plu3324, Plu1341, Plu1344); assay type: biochemical, Photorhabdus luminescens

Row | SMILES | potency as activator of the CPD (MARTXVc CPD [1]) | AC50 (MARTXVc CPD [1]; read-out: AC50 (InsP6 for half-maximal autocleavage)) [nM] | AC50 (MARTXVc CPD [2]) [nM] | InsP6-dependent autoprocessing [3] | InsP6-dependent autoprocessing [4]
1 | Nc1nc2c(ncn2[C@@H]2O[C@H](COP(=O)(O)OP(=O)(O)OP(O)(O)=S)[C@@H](O)[C@H]2O)c(=O)[nH]1 [GTPγS, guanosine 5′-[γ-thio]triphosphate] | much less potent activator | – | – | – | –
2 | O=P(O)(O)OC1C(OP(=O)(O)O)C(OP(=O)(O)O)C(OP(=O)(O)O)C(OP(=O)(O)O)C1OP(=O)(O)O (centres unmarked) [InsP6, inositol hexakisphosphate] | – | 0.91 ± 0.1 | 0.76 ± 0.27 | underwent InsP6-dependent autoprocessing | underwent InsP6-dependent autoprocessing
